In ChEMBL document CHEMBL1201862, “PubChem BioAssay data set” (2004) one finds IC50, EC50 and AC50 data, which are given here for 5 compounds.

A short description of assay [1]: Counterscreen for AddAB inhibitors: absorbance-based bacterial cell-based high throughput dose response assay for inhibitors of bacterial viability. [Related pubchem assays (depositor defined):AID435030, AID449728, AID449731, AID488942, AID488955, AID488956]. It is filed as functional. On the technique in general: A counterscreen serves to expose hits that act by an unwanted route or on another target.

The test system of another assay is BJ. In words: cytotoxicity toward Ras-transformed BJeLR fibroblasts, dose response, cell-based, alamar blue fluorescence, cherrypicked samples (AID 2631).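 Note: confirmatory dose-response assay in RAS-dependent BJ fibroblasts engineered with TERT, LT and ST, with cytotoxicity read by fluorescence.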 It is filed as functional. The settings on record: Homo sapiens. A general note: Alamar Blue is a resazurin reagent that responds to reducing activity.
The next assay has as its target Exodeoxyribonuclease V (Escherichia coli (strain K12), UniProt P04993+P07648+P08394). In words: E. coli RecBCD inhibitors, dose response, counter-screen for AddAB inhibitor project, absorbance, V66 E. coli, mutant T4 phage (AID 492957). It counts as functional, cell-based, Escherichia coli str. K-12 substr. MG1655.
Another assay addresses Nonstructural protein 1 (Influenza A virus, UniProt Q194T2). It counts as functional, Influenza A virus (A/California/07/2009(H1N1)).
A short description of assay [2]: Luminescence Cell-Based Dose Retest to Confirm Inhibitors of Cancer Stem Cells. [Related pubchem assays (depositor defined):AID2717, AID2721]. It is filed as functional. The settings on record: Homo sapiens.
The test system of the next assay is INS1. In words: beta cell apoptosis inhibitors, cytokine rescue, dose response, luminescence, retest (AID 449756).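 Note: cell death triggered by IL-1 beta plus TNF-alpha plus IFN-gamma mixture; protective hits raise ATP signal compared with cytokine alone wells.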 It is filed as functional, cell-based. The settings on record: Rattus norvegicus.
The next assay addresses Beta-galactosidase (Escherichia coli, UniProt Q8VNN2). Briefly: beta-galactosidase enzyme inhibitors and activators, dose response, artefact control for CCR6 antagonist project, biochemical, E. coli enzyme, set 3 (AID 504712). It is filed as functional.
Another assay deals with Apelin receptor (Homo sapiens, UniProt P35414). Briefly: APJ beta-arrestin recruitment antagonism, SAR follow-up, selectivity assay for CCR6 antagonist project, cell-based, luminescent, enzyme-fragment complementation (AID 588359). It is filed as functional.
Chain of Apelin receptor (P35414 whole entry, the tested form may be a part): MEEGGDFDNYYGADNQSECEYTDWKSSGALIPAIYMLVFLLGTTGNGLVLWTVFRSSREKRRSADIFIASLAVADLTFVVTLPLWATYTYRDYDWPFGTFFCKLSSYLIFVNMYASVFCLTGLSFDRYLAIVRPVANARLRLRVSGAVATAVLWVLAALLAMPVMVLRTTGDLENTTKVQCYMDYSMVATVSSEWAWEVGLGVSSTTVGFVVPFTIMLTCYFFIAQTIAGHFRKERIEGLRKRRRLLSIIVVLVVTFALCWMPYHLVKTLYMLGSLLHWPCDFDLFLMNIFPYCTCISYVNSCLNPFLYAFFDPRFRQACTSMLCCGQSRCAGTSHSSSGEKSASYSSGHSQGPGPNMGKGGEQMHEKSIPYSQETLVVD
The nature of assay [3]: cytotoxicity in MIN6 insulinoma cells, dose response, cytotoxicity control, cell-based, mouse insulinoma (AID 2122).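 Note: confirmatory high-throughput counterscreen run to flag cytotoxic compounds; mouse MIN-6 beta cells carrying an insulin promoter eGFP reporter.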 It counts as functional.
The nature of assay [4]: insulin promoter down-regulators in MIN6 cells, imaging, high-content screening, mouse beta cells (AID 1628). It is filed as functional.
For the next assay, the target named is T1, Hexokinase HKDC1 (Homo sapiens, UniProt Q2TB90).
T1 sequence (Q2TB90 whole entry): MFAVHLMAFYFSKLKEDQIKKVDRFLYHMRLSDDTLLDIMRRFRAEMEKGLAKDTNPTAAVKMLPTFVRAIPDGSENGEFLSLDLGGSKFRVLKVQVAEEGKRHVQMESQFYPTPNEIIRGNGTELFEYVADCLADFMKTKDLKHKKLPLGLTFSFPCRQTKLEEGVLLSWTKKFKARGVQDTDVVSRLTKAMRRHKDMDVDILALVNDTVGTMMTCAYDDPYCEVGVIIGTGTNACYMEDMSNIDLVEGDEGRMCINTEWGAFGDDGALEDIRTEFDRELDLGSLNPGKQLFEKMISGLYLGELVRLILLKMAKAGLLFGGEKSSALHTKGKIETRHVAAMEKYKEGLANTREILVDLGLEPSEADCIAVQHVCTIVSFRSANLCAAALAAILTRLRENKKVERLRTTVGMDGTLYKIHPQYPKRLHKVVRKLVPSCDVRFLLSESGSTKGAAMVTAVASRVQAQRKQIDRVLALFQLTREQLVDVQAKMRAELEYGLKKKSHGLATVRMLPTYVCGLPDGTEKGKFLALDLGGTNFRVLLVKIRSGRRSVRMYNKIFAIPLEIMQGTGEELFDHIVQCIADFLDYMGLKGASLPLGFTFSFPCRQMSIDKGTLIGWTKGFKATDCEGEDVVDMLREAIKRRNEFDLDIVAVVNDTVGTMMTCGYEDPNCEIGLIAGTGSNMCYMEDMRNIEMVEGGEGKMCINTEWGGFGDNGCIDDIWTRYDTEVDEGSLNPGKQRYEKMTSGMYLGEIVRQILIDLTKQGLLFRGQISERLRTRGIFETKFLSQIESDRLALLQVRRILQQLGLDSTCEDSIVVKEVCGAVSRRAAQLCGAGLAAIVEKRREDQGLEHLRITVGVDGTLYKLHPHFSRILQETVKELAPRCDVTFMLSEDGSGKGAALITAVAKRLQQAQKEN
Briefly: HKDC1 hexokinase activators, dose response, biochemical, W721R variant (AID 504730). It is filed as functional.

For assay [5], the target named is T2, Orexin/Hypocretin receptor type 1 (Homo sapiens, UniProt O43613).
T2 sequence (O43613 whole entry): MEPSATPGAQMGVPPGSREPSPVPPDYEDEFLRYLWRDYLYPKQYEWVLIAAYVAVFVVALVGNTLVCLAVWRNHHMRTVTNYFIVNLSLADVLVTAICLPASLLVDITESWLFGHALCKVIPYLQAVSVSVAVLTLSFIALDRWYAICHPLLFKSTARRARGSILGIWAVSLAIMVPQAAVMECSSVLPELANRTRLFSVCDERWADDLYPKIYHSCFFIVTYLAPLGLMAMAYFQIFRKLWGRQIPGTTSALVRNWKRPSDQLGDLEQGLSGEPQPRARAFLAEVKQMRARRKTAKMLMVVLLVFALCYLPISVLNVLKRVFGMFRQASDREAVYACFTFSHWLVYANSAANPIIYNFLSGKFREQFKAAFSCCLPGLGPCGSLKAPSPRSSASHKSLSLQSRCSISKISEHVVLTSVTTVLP
Briefly: Fluorescence-based cell-based high throughput dose response assay for antagonists of the orexin 1 receptor (OX1R; HCRTR1). [Related pubchem assays (depositor defined):AID434989, AID435008, AID463079, AID485270, AID492963, AID492964, AID492965, AID493232, AID504717, AID504718]. It counts as functional.

Assay [6] addresses T2, Orexin/Hypocretin receptor type 1. In words: Homogeneous Time Resolved Fluorescence (HTRF)-based cell-based high throughput dose response assay for antagonists of the orexin 1 receptor (OX1R; HCRTR1). [Related pubchem assays (depositor defined):AID434989, AID435008, AID463079, AID485270, AID492963, AID492964, AID492965, AID493232, AID504717, AID504718]. It counts as functional.

The nature of assay [7]: Counterscreen for antagonists of the orexin 1 receptor (OX1R; HCRTR1): Fluorescence-based cell-based high throughput dose response assay to identify antagonists of the parental CHO cell line. [Related pubchem assays (depositor defined):AID434989, AID435008, AID463079, AID485270, AID492963, AID492964, AID492965, AID493232, AID504699, AID504701]. It counts as functional.
The next assay deals with CHO-K1. In words: Counterscreen for antagonists of the orexin 1 receptor (OX1R; HCRTR1): Homogeneous time resolved fluorescence (HTRF)-based cell-based dose response assay to identify antagonists of the parental CHO-K1 cell line. [Related pubchem assays (depositor defined):AID434989, AID435008, AID463079, AID485270, AID492963, AID492964, AID492965, AID493232, AID504699, AID504701]. The following applies: Cricetulus griseus. It counts as functional.

The source made the active and inactive calls. Some results are limits rather than exact numbers.

Chain of Beta-galactosidase (Q8VNN2 whole entry, the tested form may be a part): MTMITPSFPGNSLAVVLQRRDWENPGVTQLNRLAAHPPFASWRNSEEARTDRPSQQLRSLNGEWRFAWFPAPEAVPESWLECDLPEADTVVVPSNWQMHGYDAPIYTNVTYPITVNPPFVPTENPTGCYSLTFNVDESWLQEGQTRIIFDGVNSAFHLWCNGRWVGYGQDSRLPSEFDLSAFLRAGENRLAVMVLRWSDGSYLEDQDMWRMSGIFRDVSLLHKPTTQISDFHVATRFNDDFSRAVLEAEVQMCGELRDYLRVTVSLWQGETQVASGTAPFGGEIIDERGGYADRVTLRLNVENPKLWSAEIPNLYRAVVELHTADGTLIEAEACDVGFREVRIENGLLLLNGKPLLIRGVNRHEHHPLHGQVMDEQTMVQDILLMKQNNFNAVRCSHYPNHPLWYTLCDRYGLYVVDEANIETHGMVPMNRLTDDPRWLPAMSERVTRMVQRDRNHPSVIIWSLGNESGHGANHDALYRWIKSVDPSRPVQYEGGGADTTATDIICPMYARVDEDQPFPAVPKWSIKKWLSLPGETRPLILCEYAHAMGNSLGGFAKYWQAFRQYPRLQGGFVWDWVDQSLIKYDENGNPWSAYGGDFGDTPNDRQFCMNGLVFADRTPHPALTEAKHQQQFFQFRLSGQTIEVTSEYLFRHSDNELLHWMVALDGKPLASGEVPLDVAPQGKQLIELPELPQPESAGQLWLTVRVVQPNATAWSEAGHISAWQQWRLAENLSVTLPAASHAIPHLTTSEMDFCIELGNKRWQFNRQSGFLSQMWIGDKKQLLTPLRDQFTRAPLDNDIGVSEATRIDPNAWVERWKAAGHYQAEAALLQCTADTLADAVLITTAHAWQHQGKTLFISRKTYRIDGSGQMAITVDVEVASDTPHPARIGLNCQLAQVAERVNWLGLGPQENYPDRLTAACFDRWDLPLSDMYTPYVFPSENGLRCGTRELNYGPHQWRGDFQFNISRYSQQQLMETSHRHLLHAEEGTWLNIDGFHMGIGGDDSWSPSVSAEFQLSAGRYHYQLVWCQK
Chain of Nonstructural protein 1 (Q194T2 whole entry): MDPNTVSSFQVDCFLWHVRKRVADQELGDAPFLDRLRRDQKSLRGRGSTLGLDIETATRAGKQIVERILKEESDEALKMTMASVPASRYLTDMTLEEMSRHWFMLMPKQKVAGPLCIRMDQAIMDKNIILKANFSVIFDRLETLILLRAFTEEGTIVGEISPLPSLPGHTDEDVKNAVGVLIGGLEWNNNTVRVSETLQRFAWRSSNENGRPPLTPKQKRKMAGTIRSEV
Chain of Exodeoxyribonuclease V (P04993 whole entry): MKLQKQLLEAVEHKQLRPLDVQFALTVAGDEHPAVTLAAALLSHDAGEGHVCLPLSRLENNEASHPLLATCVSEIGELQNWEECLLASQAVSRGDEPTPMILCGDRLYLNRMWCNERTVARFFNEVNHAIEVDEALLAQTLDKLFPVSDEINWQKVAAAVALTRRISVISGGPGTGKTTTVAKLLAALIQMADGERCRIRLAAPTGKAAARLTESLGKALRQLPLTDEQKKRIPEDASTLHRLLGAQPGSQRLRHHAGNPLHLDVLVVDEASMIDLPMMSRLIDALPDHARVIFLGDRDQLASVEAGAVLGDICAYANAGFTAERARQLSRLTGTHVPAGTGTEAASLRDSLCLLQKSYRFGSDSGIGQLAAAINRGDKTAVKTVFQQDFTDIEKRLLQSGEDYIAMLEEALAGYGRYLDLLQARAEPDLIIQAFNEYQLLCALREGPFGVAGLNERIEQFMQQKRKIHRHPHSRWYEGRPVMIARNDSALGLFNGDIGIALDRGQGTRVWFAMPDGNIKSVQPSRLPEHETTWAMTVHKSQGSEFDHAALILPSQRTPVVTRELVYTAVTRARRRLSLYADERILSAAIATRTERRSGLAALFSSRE
Chain of Exodeoxyribonuclease V (P07648 whole entry): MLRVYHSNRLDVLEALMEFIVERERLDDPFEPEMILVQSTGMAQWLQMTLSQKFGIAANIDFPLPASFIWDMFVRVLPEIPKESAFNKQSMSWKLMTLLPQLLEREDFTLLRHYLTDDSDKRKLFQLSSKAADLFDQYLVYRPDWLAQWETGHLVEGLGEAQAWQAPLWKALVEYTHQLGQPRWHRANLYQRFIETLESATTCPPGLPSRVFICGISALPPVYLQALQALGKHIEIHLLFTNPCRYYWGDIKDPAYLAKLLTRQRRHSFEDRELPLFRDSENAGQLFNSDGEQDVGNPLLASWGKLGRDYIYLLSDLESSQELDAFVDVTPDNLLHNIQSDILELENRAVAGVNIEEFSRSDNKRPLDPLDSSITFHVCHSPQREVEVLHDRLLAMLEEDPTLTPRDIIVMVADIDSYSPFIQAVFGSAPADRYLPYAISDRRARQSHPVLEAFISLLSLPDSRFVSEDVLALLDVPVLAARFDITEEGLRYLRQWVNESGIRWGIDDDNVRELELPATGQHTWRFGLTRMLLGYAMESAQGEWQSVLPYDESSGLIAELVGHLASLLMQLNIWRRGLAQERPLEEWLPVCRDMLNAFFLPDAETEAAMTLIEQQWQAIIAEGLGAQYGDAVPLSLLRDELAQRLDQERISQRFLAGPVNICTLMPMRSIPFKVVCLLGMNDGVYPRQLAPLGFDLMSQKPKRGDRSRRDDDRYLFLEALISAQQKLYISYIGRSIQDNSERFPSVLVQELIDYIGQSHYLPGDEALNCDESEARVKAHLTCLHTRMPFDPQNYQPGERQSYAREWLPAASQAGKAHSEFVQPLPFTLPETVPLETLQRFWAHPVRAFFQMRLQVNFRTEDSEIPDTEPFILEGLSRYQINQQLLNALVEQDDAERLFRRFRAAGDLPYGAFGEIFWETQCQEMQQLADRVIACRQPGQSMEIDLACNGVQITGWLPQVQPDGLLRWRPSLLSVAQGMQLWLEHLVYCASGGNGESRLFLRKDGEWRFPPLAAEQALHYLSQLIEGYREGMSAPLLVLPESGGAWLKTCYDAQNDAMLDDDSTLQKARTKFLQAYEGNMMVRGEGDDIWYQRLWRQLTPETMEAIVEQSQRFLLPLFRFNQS
Chain of Exodeoxyribonuclease V (P08394 whole entry): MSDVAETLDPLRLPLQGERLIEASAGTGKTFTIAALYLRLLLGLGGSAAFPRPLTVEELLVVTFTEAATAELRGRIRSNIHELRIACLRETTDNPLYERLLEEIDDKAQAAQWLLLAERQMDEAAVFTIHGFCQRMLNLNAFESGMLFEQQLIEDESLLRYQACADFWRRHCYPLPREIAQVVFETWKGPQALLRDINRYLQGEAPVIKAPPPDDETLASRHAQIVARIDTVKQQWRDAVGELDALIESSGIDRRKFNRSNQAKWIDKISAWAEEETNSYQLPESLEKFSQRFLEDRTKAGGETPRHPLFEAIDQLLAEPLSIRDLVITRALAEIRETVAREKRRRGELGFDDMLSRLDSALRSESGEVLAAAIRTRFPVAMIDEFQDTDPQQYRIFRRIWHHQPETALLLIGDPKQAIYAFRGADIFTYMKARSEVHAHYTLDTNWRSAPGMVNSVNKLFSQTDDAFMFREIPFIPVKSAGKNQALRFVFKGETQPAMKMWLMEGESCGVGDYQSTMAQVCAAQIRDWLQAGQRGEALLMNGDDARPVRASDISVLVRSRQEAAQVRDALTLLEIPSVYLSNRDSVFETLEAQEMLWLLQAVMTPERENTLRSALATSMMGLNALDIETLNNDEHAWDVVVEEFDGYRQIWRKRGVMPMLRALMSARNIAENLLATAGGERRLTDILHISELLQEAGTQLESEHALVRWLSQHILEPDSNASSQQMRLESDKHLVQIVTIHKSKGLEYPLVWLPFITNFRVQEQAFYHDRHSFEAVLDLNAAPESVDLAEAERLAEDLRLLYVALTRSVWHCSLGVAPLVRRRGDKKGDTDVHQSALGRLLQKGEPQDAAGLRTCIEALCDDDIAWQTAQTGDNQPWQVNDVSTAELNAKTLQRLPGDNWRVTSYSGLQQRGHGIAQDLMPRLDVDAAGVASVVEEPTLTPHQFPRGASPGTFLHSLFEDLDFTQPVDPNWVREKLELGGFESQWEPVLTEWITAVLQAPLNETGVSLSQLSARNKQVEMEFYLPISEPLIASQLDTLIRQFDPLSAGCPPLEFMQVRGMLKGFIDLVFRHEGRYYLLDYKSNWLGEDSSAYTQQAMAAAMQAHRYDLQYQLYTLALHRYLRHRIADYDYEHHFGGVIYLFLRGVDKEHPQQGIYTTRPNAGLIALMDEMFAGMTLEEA

Consider `COc1cccc(/C=N/Nc2ncnc(Cl)c2N)c1O`, for which the IC50 in assay [1] was > 119 µM (inactive); on Exodeoxyribonuclease V, > 119 µM (inactive); on Nonstructural protein 1 it was 3.65 µM (active). Moreover, the EC50 in the assay on BJ is 1.27 µM (inconclusive). Further, the AC50 in assay [2] was 2.96 µM (active); in the assay on INS1, 1.02 µM (active).
For `Cc1sc2nc(SCCN(C)C)n(-c3ccccc3)c(=O)c2c1-c1ccc(F)cc1`, the IC50 on Beta-galactosidase is > 66.6 µM (inactive); at Apelin receptor it was 30.9 µM (inactive). Also, the AC50 in assay [2] is 7.17 µM (active).
Regarding `Cc1nn(C)c(C)c1CNC(=O)c1cc2n(n1)C(C(F)(F)F)CC(c1cccs1)N2` (stereo unspecified), the 50% inhibitory concentration (IC50) is 1.11 µM (active) in assay [3] and 1.94 µM (active) in assay [4].
As to `CCN(CC)C(=O)c1ccc(C(=O)c2c(C)cc(C)cc2C)cc1`, the EC50 on Hexokinase HKDC1 was > 80 µM (inactive).
As to `Cc1ccc(O)c(NC(=O)c2cc(-c3ccccc3Cl)on2)c1`, the IC50 in [5] was > 49.8 µM (inactive); in assay [6], 7.23 µM (active); in assay [7] it was > 49.8 µM (inactive); with CHO-K1, > 66.3 µM (inactive).

A word on the IC50: it is the concentration at which inhibition is half-maximal. A word on the EC50: it is the concentration needed to bring the measured effect to its halfway point. Broadly, the AC50 is the concentration giving half of the maximal activity seen.
